Measured values as given in patent publication US8101761B2, “(E)-N-{3-[1-(8-fluoro-11H-10-OXA-1-AZA-dibenzo [A,D] cyclohepten-5ylidene)-propyl]-phenyl}-methanesulfonamide as glucocorticoid receptor modulator for the treatment of rheumatoid arthritis” (Eli Lilly and Company, priority 2008, dated 2012).
Where two headings read alike, the source gives them in different places.

System: carrageenan-induced paw edema in male Sprague-Dawley rats
Assay: Carrageenan-induced paw edema (CPE) model
Assay type: in vivo
Conditions: rat, oral gavage 2 h before carrageenan, paws taken 3 h after, mean of 5 determinations
Source text: Carrageenans are a group of polysaccharides which can induce an acute inflammatory response in animals. Cardinal signs of inflammation including edema, hyperalgesia and erythema are developed in the injection site immediately following injection. The CPE model is a recognized model of inflammation and can be used to evaluate the anti-inflammatory effects of glucocorticoid receptor ligands.
To evaluate the anti-inflammatory effects of Compound (I), the compound is formulated in a vehicle comprising 0.5% carboxymethyl cellulose and 0.25% Tween 80 then administered orally via gavage to male Sprague-Dawley rats (180-200 g). For comparison, prednisolone may be administered orally in the same vehicle. Two hours later, 1% carrageenan in 50 μl of 0.9% pyrogen free saline is injected into the subplantar regions of the right hind paw. Rats are euthanized by CO2 at 3 hours after the carrageenan injection. Paws are removed then weighed using a microbalance. Paws are then dissected by making several cuts on the paw surface and immediately immersing into liquid nitrogen until frozen. Frozen paws are then centrifuged to extract the exudates. Exudate levels of IL-1β, a cytokine generated during the inflammatory response is then measured by ELISA according to manufacturers instructions. Total paw protein is also measured using a protein assay kit and the absolute level of IL-1β is normalized to yield a concentration value of ng IL-1β/mg total protein.

C[C@]12C=CC(=O)C=C1CC[C@@H]1[C@@H]2[C@@H](O)C[C@@]2(C)[C@H]1CC[C@]2(O)C(=O)CO [prednisolone, reference compound]
ED50 (read-out: ED50, inhibition of carrageenan induced paw weight gain): ~6.6 mg/kg
ED50 (read-out: ED50, reduction of paw exudate levels of IL-1β): < 1 mg/kg
